Source: patent US12390498B2, “Treatment of clostridium difficile infection” (Vedanta Biosciences, Inc., priority 2016, dated 2025)

Columns and labels:
[1] = tested on: Clostridium difficile infection (CDI); conditions: cited from earlier work
[2] = Short-chain fatty acid producing abilities of Composition F strains

For `CCc1c(Cl)c(O)c(Cl)c(O)c1C(=O)O[C@H]1[C@H](O)[C@H](OC)[C@H](OC/C2=C\C=C\C[C@H](O)/C(C)=C/[C@H](CC)[C@@H](O[C@@H]3OC(C)(C)[C@@H](OC(=O)C(C)C)[C@H](O)[C@@H]3O)/C(C)=C/C(C)=C/C[C@@H]([C@@H](C)O)OC2=O)O[C@@H]1C` [fidaxomicin], the “treated patients experiencing CDI relapse” value ([1]; CDI patients) is listed as 14% and the “preventing recurrent CDI” value ([1]; comparison with vancomycin) is listed as “superior to vancomycin”.
For Bacteroides cellulosilyticus, the “SCFAs (short chain fatty acids produced)” value [2] was “A, S”.
